Data on 9 compounds can be found in EP4817687A2, “NUCLEOTIDE AND NUCLEOSIDE THERAPEUTIC COMPOSITIONS AND USES RELATED THERETO” (Emory University, priority 2013, dated 2015).

One may read the CC50 as the concentration at which the toxic effect on the cells reaches its halfway point. Usually IC50 stands for the midpoint of a concentration-inhibition curve.

Molecules are shown by their SMILES. Where two headings read alike, the source gives them in different places.

In series [1] the test system is GT1b-NS5B-S282T. The series can be described thus: microbe, parasite or virus in culture. In kind it is cell-based, HCV. Conditions: Hepatitis C virus, read-out: EC50(µM) GT1b-NS5B-S282T.
Series [2] concerns GT1b-NS5B-S96T. Put plainly: microbe, parasite or virus in culture. In kind it is cell-based, HCV. Conditions: Hepatitis C virus, read-out: EC50(µM) GT1b-NS5B-S96T.
The test system of series [3] is 2b (GT1b/2b NS5B chimera). The series can be described thus: microbe, parasite or virus in culture. It counts as cell-based, HCV. Conditions: Hepatitis C virus, read-out: EC50(µM) 2b (GT1b/2b NS5B chimera).
In series [4] the test system is 4a (GT1b/4a NS5B chimera). The series can be described thus: microbe, parasite or virus in culture. It counts as cell-based, HCV. Conditions: Hepatitis C virus, read-out: EC50(µM) 4a (GT1b/4a NS5B chimera).
Series [5] is described as follows: Cytotoxicity (CC50) in the GT1b replicon test. It counts as cell-based. Particulars: gt1b replicon cells. A general note: A replicon is a self-replicating genome or part of one, used to study replication in cells.
In series [6] the test system is 3a (GT1b/3a NS5B chimera). Put plainly: microbe, parasite or virus in culture. In kind it is cell-based, HCV. Particulars: Hepatitis C virus, read-out: EC50(µM) 3a (GT1b/3a NS5B chimera).
Series [7] has as its system Dengue Type 2. Put plainly: Anti-Dengue Virus Cytoprotection Assay, Dengue Type 2.
The nature of series [8]: Anti-Dengue assay, toxicity (XTT) in Vero cells. Particulars: monkey.
The subject of series [9] is Huh-7. The series can be described thus: Cytotoxicity panel (CC50), Huh-7. It counts as cell-based, human. Conditions: Huh-7.
The target in series [10] is T1, Human DNA pol γ (Homo sapiens, UniProt P54098).
T1 sequence (P54098 1-1239): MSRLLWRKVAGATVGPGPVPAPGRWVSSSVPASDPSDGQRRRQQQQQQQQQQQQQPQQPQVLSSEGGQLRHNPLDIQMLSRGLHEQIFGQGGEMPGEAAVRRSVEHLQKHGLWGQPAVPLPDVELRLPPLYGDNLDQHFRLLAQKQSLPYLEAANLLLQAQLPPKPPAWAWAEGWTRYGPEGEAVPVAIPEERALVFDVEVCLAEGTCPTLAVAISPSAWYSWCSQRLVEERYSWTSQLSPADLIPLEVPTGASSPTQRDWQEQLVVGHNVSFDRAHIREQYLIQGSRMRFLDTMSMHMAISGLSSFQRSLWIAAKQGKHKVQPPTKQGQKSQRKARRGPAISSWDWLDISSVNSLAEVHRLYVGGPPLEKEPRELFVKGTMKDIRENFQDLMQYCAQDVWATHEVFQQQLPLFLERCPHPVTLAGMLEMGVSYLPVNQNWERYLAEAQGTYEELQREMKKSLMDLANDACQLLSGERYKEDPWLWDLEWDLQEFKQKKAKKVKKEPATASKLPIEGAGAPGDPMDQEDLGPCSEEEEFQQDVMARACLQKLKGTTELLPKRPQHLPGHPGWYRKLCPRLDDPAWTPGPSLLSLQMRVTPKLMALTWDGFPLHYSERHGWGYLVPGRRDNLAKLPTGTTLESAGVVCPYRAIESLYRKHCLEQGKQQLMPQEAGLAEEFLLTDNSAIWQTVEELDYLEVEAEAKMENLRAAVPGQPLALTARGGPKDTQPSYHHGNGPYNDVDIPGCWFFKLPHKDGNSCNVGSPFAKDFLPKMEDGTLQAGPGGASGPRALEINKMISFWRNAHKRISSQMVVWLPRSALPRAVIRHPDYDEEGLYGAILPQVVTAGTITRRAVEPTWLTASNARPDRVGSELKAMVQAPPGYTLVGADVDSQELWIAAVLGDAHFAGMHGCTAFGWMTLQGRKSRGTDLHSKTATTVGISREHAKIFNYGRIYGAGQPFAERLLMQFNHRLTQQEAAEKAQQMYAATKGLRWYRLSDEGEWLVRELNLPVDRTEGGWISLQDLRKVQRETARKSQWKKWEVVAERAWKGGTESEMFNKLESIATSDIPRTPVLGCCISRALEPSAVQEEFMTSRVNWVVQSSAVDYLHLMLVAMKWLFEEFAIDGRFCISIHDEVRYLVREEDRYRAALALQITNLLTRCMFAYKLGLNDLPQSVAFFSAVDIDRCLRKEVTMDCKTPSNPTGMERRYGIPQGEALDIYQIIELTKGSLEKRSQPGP
The series can be described thus: Human DNA Polymerase Inhibition Assay, pol γ. It counts as biochemical.

The target of series [11] is T2, Human DNA pol α (Homo sapiens, UniProt P09884).
T2 sequence (P09884 1-1462): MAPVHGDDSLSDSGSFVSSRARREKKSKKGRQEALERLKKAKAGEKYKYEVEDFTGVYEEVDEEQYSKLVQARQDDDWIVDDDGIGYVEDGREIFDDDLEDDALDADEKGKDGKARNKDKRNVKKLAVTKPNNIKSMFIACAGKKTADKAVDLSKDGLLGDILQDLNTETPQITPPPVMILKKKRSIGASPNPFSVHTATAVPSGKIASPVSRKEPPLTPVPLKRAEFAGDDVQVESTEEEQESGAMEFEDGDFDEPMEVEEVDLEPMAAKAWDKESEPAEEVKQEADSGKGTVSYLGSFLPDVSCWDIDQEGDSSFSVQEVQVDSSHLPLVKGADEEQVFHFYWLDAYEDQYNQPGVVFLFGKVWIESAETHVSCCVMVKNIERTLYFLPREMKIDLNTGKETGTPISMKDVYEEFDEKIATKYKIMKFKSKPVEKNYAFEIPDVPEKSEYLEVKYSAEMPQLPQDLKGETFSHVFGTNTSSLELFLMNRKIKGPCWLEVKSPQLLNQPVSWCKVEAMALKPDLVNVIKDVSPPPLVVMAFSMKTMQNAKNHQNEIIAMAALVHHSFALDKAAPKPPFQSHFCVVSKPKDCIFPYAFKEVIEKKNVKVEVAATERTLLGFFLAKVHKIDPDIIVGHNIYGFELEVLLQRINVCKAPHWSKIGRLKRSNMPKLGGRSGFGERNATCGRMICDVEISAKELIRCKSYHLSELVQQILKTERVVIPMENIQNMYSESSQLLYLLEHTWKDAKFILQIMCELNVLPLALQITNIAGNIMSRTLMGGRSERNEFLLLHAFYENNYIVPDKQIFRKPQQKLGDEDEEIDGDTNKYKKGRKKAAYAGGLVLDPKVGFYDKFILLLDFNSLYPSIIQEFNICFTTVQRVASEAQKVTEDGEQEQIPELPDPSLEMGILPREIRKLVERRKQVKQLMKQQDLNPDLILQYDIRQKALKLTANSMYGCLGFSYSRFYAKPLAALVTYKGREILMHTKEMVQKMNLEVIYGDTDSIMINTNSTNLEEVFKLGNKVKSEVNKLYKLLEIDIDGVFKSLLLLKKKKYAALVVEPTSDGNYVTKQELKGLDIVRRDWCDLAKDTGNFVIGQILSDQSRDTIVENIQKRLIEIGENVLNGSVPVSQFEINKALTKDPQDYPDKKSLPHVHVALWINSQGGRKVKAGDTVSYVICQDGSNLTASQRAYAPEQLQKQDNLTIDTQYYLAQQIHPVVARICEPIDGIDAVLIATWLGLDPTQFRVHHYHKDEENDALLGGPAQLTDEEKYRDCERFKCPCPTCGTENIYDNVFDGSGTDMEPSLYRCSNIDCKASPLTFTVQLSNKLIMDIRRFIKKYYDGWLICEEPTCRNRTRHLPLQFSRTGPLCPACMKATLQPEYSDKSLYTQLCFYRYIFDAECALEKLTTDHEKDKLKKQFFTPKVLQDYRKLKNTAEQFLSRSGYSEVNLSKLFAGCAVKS
The series can be described thus: Human DNA Polymerase Inhibition Assay, pol α. It counts as biochemical.

A short description of series [12]: Anti-Dengue assay, toxicity (XTT) in Huh-7 cells. Conditions: human. For orientation: Tetrazolium assays rely on reduction of a dye to a coloured formazan, in cell work by metabolically active cells.
A short description of series [13]: Cytotoxicity panel (CC50), HepG2. Conditions: human, hepg2 cells. In kind it is cell-based.
Series [14] is described as follows: Cytotoxicity panel (CC50), CEM. In kind it is cell-based. Particulars: human, cem cells.
In series [15] the test system is HepG2. The series can be described thus: Cytotoxicity panel (CC50), HepG2. It counts as cell-based. Particulars: HepG2.
In series [16] the test system is BxPC3. Put plainly: Cytotoxicity panel (CC50), BxPC3. It counts as cell-based. Conditions: BxPC3.
The test system of series [17] is A204. The series can be described thus: Cytotoxicity panel (CC50), A204. In kind it is cell-based. Conditions: A204.
For series [18], the system named is IEC-6. Put plainly: Cytotoxicity panel (CC50), IEC-6. It counts as cell-based. Conditions: IEC-6.
Series [19] has as its system H9c. Put plainly: Cytotoxicity panel (CC50), H9c. In kind it is cell-based. Particulars: H9c.
[20] abbreviates: Huh-7, read-out: Dengue Type 2 Huh-7 Cells (EC50 uM).
Setting [21] is: Vero, read-out: Dengue Type 2 Vero Cells (EC50 uM).

`CC(C)OC(=O)[C@H](C)NP(=O)(OC[C@H]1O[C@@H](n2ccc(=O)[nH]c2=S)[C@](C)(O)[C@@H]1O)Oc1ccccc1` (stereo partly shown) [drawing 470]: the EC50 in [1] was over 10 µM; in [2], 0.132 µM; in series [3], 0.083 µM; in series [4], 0.0371 µM; in [6], 0.0882 µM. The compound further returned a CC50 in [5] of over 10 µM.
In the case of `C[C@@]1(O)[C@H](O)[C@@H](CO)O[C@H]1n1ccc(=O)[nH]c1=S` [drawing 473], the EC50 is over 100 µM in [7] (setting [20]) and 7.79 µM in series [7] (setting [21]). Besides, the CC50 in series [8] was over 100 µM.
For the compound `CC(C)OC(=O)[C@H](C)NP(=O)(OC[C@H]1O[C@@H](n2ccc(=O)[nH]c2=S)[C@H](O)[C@@H]1O)Oc1ccccc1` (stereo partly shown) [drawing 451], the 50% cytotoxic concentration (CC50) in series [9] is over 400 µM.
Take `CC(C)OC(=O)[C@H](C)N[P@](=O)(OC[C@H]1O[C@@H](n2ccc(=O)[nH]c2=O)[C@](C)(F)[C@@H]1O)Oc1ccccc1` [drawing 472]: the EC50 in series [1] amounted to 0.287 µM; in series [2] it was 0.0702 µM; in series [3] it was 0.0199 µM; in series [4], 0.0493 µM; in [6], 0.0385 µM. Also, in series [5], the CC50 was over 2 µM.
On to `C[C@@]1(O)[C@H](O)[C@@H](COP(=O)(O)OP(=O)(O)OP(=O)(O)O)O[C@H]1n1ccc(=O)[nH]c1=S`, for which the IC50 in series [10] and in series [11] was over 1000 µM each time.
With `CC(C)OC(=O)[C@H](C)NP(=O)(OC[C@H]1O[C@@H](n2ccc(=O)[nH]c2=S)[C@](C)(O)[C@@H]1O)Oc1ccccc1` (stereo partly shown) [drawing 474], the results for the EC50 in series [7] (setting [20]) and in series [7] (setting [21]) were 5.1 µM and 2.02 µM, respectively. The CC50 in [12] and in [8] was over 100 µM in each case.
Regarding `CC(C)OC(=O)[C@H](C)NP(=O)(OC[C@H]1O[C@@H](n2ccc(=S)[nH]c2=O)[C@H](O)[C@@H]1O)Oc1ccccc1` (stereo partly shown) [drawing 462], the results for the CC50 in [13], in series [14] and in series [9] were over 400 µM, over 400 µM and 369 µM, respectively.
In [15], `CC(C)OC(=O)[C@H](C)NP(=O)(OC[C@H]1O[C@@H](n2ccc(=S)[nH]c2=O)[C@H](O)[C@@H]1O)Oc1ccccc1` (stereo partly shown) [drawing 445] registered a 50% cytotoxic concentration (CC50) of over 400 µM.
For `CC(C)OC(=O)[C@H](C)NP(=O)(OC[C@H]1O[C@@H](n2ccc(=S)[nH]c2=O)[C@](C)(O)[C@@H]1O)Oc1ccccc1` (stereo partly shown) [drawing 447], the CC50 in series [16] was over 300 µM; in [17], over 200 µM; in series [9] it was over 400 µM; in [18], over 400 µM; in series [19], over 200 µM.
